Experiments:
FAM86 (NM_027446.2) = assay: shRNA mean knockdown level of FAM86 (Table 1); assay type: cell-based; settings: Mus musculus FAM86, pLKO.1 vector
B16F10 cells [1] = assay: Melanin secretion assay after FAM86A knockdown; assay type: cell-based, mouse; settings: FAM86A knockdown without α-MSH, 48 hours, absorbance 475 nm
Experimental: The B16F10 cells cultured in Example 1 were seeded in a 6-well plate at 5×10^4 cells/well and cultured for 24 hours, and the knockdown of the FAM86A gene was induced using FAM86A shRNA represented by SEQ ID NO: 17. The cells were cultured in an incubator under conditions of 37° C. and 5% CO2 for 48 hours, the medium was removed, and then a cell lysis buffer was added at 200 μL per well to lyse the cells, followed by centrifugation at 4° C. and 12,000 rpm for 5 minutes and removal of a supernatant. 100 μL of the resulting supernatant was dispensed into a 96-well plate, and subjected to absorbance measurement at 475 nm. Here, an amount of melanin secretion was calculated based on 100% of the amount of melanin in cells in which the FAM86A gene was not knocked down.

[2] = test system: tyrosinase, TYRP-1, TYRP-2 and MITF genes; assay: Real-time PCR of melanogenesis-associated genes after FAM86A knockdown; assay type: cell-based, mouse; settings: B16F10 cells, 48 hours
Experimental: The B16F10 cells cultured in Example 1 were seeded in 6-well plates at a density of 5×10^4 cells per well, grown for 24 hours, and FAM86A shRNA represented by SEQ ID NO: 17 was used for knockdown of the FAM86A gene. The cells were incubated in an incubator under conditions of 37° C. and 5% CO2 for 48 hours. After 48 hours, the medium was completely removed, the cells were decomposed with TRIzol and neutralized using BCP. The neutralized liquid was treated with isopropanol to precipitate mRNA. Subsequently, only the precipitated mRNA was collected using a centrifuge, and used for the experiment. Intracellular mRNA was synthesized into cDNA using a cDNA kit, and the expression levels of tyrosinase, TYRP-1, TYRP-2 and MITF genes, which are important for melanogenesis, were determined by PCR.

B16F10 cells [3] = assay: Melanin secretion assay after FAM86A knockdown and α-MSH treatment; assay type: cell-based, mouse; settings: FAM86A knockdown plus α-MSH 100 nM, 48 hours, absorbance 475 nm
Experimental: The melanin synthesis promoting hormone α-MSH was used to induce melanogenesis in melanocytes.
The B16F10 cells cultured in Example 1 were seeded in a 6-well plate at 5×10^4 cells/well and cultured for 24 hours, FAM86A (family with sequence similarity 86, member A) shRNA represented by SEQ ID NO: 17 was used for knockdown of the FAM86A gene, and then the cells were treated with α-MSH at 100 nM. The resulting cells were cultured in an incubator under conditions of 37° C. and 5% CO2 for 48 hours, and 800 μL of the cell culture fluid was transferred to a fresh tube, and centrifuged at 4° C. and 12,000 rpm for 5 minutes to obtain a supernatant. 100 μL of the resulting supernatant was dispensed into a 96-well plate, and subjected to absorbance measurement at 475 nm. Here, an amount of melanin production was calculated based on 100% of the amount of melanin in cells not treated with α-MSH.

cAMP = cAMP ELISA after FAM86A knockdown; assay type: cell-based, mouse; settings: B16F10 cells
Experimental: The B16F10 cells cultured in Example 1 were seeded in 6-well plates at a density of 5×10^4 cells per well, grown for 24 hours, and FAM86A shRNA represented by SEQ ID NO: 17 was used for FAM86A gene knockdown. Afterward, the cells were washed twice with PBS. Subsequently, PBS was completely removed, and then 200 μL of RIPA buffer, which is a tissue lysis and staining reagent, was added to each plate, followed by harvesting cells with a scraper. Afterward, a BCA assay was conducted to quantify proteins, and then the expression of cAMP protein was measured using a cAMP ELISA kit (ab65355).

B16F10 cells [4] = assay: Melanin content assay after FAM86A knockdown and α-MSH treatment; assay type: cell-based, mouse; settings: FAM86A knockdown plus α-MSH 100 nM, 48 hours, absorbance 405 nm
Experimental: A melanocyte stimulating hormone (α-MSH), which is a melanin synthesis promoting hormone, was used to induce melanogenesis in melanocytes.
The B16F10 cells cultured in Example 1 were seeded in 6-well plates at a density of 5×10^4 cells per well, grown for 24 hours, and FAM86A shRNA represented by SEQ ID NO: 17 in Table 1 was used for knockdown of the FAM86A gene. The cells were treated with α-MSH to be 100 nM. The resulting cells were cultured in an incubator under conditions of 37° C. and 5% CO2 for 48 hours, the medium was removed, and a cell lysis buffer was treated at 200 μL per well to lyse the cells, followed by centrifugation at 4° C. and 12,000 rpm for 5 minutes and removal of a supernatant. The resulting pellet was treated with 100 μL of a 10% sodium dodecyl sulfate-1M NaOH solution and heated for 30 minutes at 60° C. Afterward, the heated solution was maintained at room temperature to cool to 25° C., absorbance at 405 nm was measured, and the results are shown in FIG. 12. Here, an amount of melanin production was calculated based on 100% of the amount of melanin in cells not treated with α-MSH.

Substance: SEQ ID NO: 17: FAM86 shRNA (Mus musculus, NM_027446.2), pLKO.1 vector, target sequence SEQ ID NO: 27; used in the examples (DNA CCGGGTCTATGTAGCCTATACTATCCTCGAGGATAGTATAGGCTACATAGACTTTTTG)
- Mean Knock down level (FAM86 (NM_027446.2)): 0.87
- amount of melanin secretion (B16F10 cells [1]): increased
- expression level of MITF gene [2]: significantly increased
- expression level of TYRP-1 gene [2]: significantly increased
- expression level of TYRP-2 gene [2]: significantly increased
- expression level of tyrosinase gene [2]: significantly increased
- secretion amount of melanin (B16F10 cells [3]): increased
- cAMP expression (cAMP): increased
- amount of melanin (production) (B16F10 cells [4]): increased

Source: US12704520B2, “Melanogenesis detection method using FAM86A” (Research & Business Foundation Sungkyunkwan University, priority 2019, dated 2026)
